Results published in publication PMC7385619, “A triple action CDK4/6-PI3K-BET inhibitor with augmented cancer cell cytotoxicity” (Cell Discovery, 2020).
Read-outs that look alike come from different tables or passages of the source.

Key:
Assay in all cases: KINOMEscan assay (Eurofins DiscoverX)
Assay type in all cases: binding
kinome (kinase panel) [1] = target: T1, kinome (kinase panel) (Homo sapiens, UniProt O75460); conditions: ERN1; 1000 nM; read-out: Percent Control
T1 construct: purchased Eurofins DiscoverX

kinome (kinase panel) [2] = target: T2, kinome (kinase panel) (Homo sapiens, UniProt P35968); conditions: VEGFR2 (KDR); 1000 nM; read-out: Percent Control
T2 construct: purchased Eurofins DiscoverX

kinome (kinase panel) [3] = target: T3, kinome (kinase panel) (Homo sapiens, UniProt P51451); conditions: BLK; 1000 nM; read-out: Percent Control
T3 construct: purchased Eurofins DiscoverX

kinome (kinase panel) [4] = target: T4, kinome (kinase panel) (Homo sapiens, UniProt Q13163); conditions: MEK5 (Entrez MAP2K5); 1000 nM; read-out: Percent Control
T4 construct: purchased Eurofins DiscoverX

kinome (kinase panel) [5] = target: T5, kinome (kinase panel) (Homo sapiens, UniProt Q04759); conditions: PRKCQ; 1000 nM; read-out: Percent Control
T5 construct: purchased Eurofins DiscoverX

kinome (kinase panel) [6] = target: T6, kinome (kinase panel) (Homo sapiens, UniProt P15056); conditions: BRAF; 1000 nM; read-out: Percent Control
T6 construct: purchased Eurofins DiscoverX

kinome (kinase panel) [7] = target: T7, kinome (kinase panel) (Homo sapiens, UniProt P36888, D835V); conditions: […]; 1000 nM; read-out: Percent Control
T7 construct: purchased Eurofins DiscoverX

kinome (kinase panel) [8] = target: T8, kinome (kinase panel) (Homo sapiens, UniProt Q9NWZ3); conditions: IRAK4; 1000 nM; read-out: Percent Control
T8 construct: purchased Eurofins DiscoverX

kinome (kinase panel) [9] = target: T9, kinome (kinase panel) (Homo sapiens, UniProt P54762); conditions: EPHB1; 1000 nM; read-out: Percent Control
T9 construct: purchased Eurofins DiscoverX

kinome (kinase panel) [10] = target: T10, kinome (kinase panel) (Homo sapiens, UniProt Q99759); conditions: MAP3K3; 1000 nM; read-out: Percent Control
T10 construct: purchased Eurofins DiscoverX

kinome (kinase panel) [11] = target: T11, kinome (kinase panel) (Homo sapiens, UniProt Q15208); conditions: NDR1 (Entrez STK38); 1000 nM; read-out: Percent Control
T11 construct: purchased Eurofins DiscoverX

kinome (kinase panel) [12] = target: T12, kinome (kinase panel) (Plasmodium falciparum, UniProt P62344); conditions: PFCDPK1(P.falciparum) (Entrez CDPK1); 1000 nM; read-out: Percent Control
T12 construct: purchased Eurofins DiscoverX

kinome (kinase panel) [13] = target: T13, kinome (kinase panel) (Homo sapiens, UniProt Q13627); conditions: DYRK1A; 1000 nM; read-out: Percent Control
T13 construct: purchased Eurofins DiscoverX

kinome (kinase panel) [14] = target: T14, kinome (kinase panel) (Homo sapiens, UniProt Q86YV6); conditions: MYLK4; 1000 nM; read-out: Percent Control
T14 construct: purchased Eurofins DiscoverX

kinome (kinase panel) [15] = target: T15, kinome (kinase panel) (Homo sapiens, UniProt P00533, DEL746-750); conditions: EGFR(E746-A750del); 1000 nM; read-out: Percent Control
T15 construct: purchased Eurofins DiscoverX

kinome (kinase panel) [16] = target: T16, kinome (kinase panel) (Homo sapiens, UniProt Q8TF76); conditions: HASPIN (Entrez GSG2); 1000 nM; read-out: Percent Control
T16 construct: purchased Eurofins DiscoverX

kinome (kinase panel) [17] = target: T17, kinome (kinase panel) (Homo sapiens, UniProt Q12851); conditions: MAP4K2; 1000 nM; read-out: Percent Control
T17 construct: purchased Eurofins DiscoverX

kinome (kinase panel) [18] = target: T18, kinome (kinase panel) (Homo sapiens, UniProt P07332); conditions: FES; 1000 nM; read-out: Percent Control
T18 construct: purchased Eurofins DiscoverX

kinome (kinase panel) [19] = target: T19, kinome (kinase panel) (Homo sapiens, UniProt P22694); conditions: PKAC-beta (Entrez PRKACB); 1000 nM; read-out: Percent Control
T19 construct: purchased Eurofins DiscoverX

kinome (kinase panel) [20] = target: T20, kinome (kinase panel) (Homo sapiens, UniProt Q13237); conditions: PRKG2; 1000 nM; read-out: Percent Control
T20 construct: purchased Eurofins DiscoverX

kinome (kinase panel) [21] = target: T21, kinome (kinase panel) (Homo sapiens, UniProt O96017); conditions: CHEK2; 1000 nM; read-out: Percent Control
T21 construct: purchased Eurofins DiscoverX

kinome (kinase panel) [22] = target: T22, kinome (kinase panel) (Homo sapiens, UniProt Q04771); conditions: ACVR1; 1000 nM; read-out: Percent Control
T22 construct: purchased Eurofins DiscoverX

kinome (kinase panel) [23] = target: T23, kinome (kinase panel) (Homo sapiens, UniProt P07947); conditions: YES (YES1); 1000 nM; read-out: Percent Control
T23 construct: purchased Eurofins DiscoverX

kinome (kinase panel) [24] = target: T24, kinome (kinase panel) (Homo sapiens, UniProt O75582); conditions: 1000 nM, read-out: Percent Control
T24 construct: purchased Eurofins DiscoverX

kinome (kinase panel) [25] = target: T25, kinome (kinase panel) (Homo sapiens, UniProt P23458); conditions: 1000 nM, read-out: Percent Control
T25 construct: purchased Eurofins DiscoverX

kinome (kinase panel) [26] = target: T26, kinome (kinase panel) (Homo sapiens, UniProt P51957); conditions: NEK4; 1000 nM; read-out: Percent Control
T26 construct: purchased Eurofins DiscoverX

kinome (kinase panel) [27] = target: T27, kinome (kinase panel) (Homo sapiens, UniProt Q09013); conditions: DMPK; 1000 nM; read-out: Percent Control
T27 construct: purchased Eurofins DiscoverX

kinome (kinase panel) [28] = target: T28, kinome (kinase panel) (Homo sapiens, UniProt P68400); conditions: CSNK2A1; 1000 nM; read-out: Percent Control
T28 construct: purchased Eurofins DiscoverX

kinome (kinase panel) [29] = target: T29, kinome (kinase panel) (Homo sapiens, UniProt P15735); conditions: PHKG2; 1000 nM; read-out: Percent Control
T29 construct: purchased Eurofins DiscoverX

kinome (kinase panel) [30] = target: T30, kinome (kinase panel) (Homo sapiens, UniProt P31751); conditions: AKT2; 1000 nM; read-out: Percent Control
T30 construct: purchased Eurofins DiscoverX

kinome (kinase panel) [31] = target: T31, kinome (kinase panel) (Homo sapiens, UniProt O14965); conditions: AURKA; 1000 nM; read-out: Percent Control
T31 construct: purchased Eurofins DiscoverX

kinome (kinase panel) [32] = target: T32, kinome (kinase panel) (Homo sapiens, UniProt Q9UKI8); conditions: TLK1; 1000 nM; read-out: Percent Control
T32 construct: purchased Eurofins DiscoverX

T25 sequence (P23458 whole entry): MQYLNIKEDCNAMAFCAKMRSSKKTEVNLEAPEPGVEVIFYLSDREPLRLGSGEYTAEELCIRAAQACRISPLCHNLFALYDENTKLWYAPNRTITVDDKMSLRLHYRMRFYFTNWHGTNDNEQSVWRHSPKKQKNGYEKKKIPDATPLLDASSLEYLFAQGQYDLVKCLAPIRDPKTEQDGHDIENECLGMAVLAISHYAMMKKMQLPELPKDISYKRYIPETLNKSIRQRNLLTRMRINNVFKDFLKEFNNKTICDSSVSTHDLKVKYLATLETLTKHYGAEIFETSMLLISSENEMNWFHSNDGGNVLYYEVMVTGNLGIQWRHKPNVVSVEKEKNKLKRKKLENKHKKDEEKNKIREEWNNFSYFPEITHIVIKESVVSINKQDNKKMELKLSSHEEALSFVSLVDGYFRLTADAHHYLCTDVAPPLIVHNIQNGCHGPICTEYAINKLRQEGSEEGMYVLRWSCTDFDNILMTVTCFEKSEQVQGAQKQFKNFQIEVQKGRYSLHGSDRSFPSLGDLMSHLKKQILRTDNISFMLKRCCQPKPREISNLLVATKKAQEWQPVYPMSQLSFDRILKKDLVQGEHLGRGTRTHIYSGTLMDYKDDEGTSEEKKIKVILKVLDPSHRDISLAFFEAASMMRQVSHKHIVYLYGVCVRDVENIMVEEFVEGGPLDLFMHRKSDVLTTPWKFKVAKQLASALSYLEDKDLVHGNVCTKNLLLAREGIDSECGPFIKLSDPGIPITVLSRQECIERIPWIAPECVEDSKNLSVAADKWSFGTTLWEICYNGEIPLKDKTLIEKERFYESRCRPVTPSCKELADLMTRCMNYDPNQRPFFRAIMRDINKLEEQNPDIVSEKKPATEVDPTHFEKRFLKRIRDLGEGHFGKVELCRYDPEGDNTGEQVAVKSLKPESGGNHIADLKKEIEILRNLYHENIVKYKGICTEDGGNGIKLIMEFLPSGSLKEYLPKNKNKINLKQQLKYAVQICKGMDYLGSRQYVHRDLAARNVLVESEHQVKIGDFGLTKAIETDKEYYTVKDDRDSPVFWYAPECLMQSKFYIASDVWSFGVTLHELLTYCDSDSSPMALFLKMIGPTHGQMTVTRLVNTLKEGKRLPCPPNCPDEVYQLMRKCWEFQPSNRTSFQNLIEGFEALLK
T24 sequence (O75582 whole entry): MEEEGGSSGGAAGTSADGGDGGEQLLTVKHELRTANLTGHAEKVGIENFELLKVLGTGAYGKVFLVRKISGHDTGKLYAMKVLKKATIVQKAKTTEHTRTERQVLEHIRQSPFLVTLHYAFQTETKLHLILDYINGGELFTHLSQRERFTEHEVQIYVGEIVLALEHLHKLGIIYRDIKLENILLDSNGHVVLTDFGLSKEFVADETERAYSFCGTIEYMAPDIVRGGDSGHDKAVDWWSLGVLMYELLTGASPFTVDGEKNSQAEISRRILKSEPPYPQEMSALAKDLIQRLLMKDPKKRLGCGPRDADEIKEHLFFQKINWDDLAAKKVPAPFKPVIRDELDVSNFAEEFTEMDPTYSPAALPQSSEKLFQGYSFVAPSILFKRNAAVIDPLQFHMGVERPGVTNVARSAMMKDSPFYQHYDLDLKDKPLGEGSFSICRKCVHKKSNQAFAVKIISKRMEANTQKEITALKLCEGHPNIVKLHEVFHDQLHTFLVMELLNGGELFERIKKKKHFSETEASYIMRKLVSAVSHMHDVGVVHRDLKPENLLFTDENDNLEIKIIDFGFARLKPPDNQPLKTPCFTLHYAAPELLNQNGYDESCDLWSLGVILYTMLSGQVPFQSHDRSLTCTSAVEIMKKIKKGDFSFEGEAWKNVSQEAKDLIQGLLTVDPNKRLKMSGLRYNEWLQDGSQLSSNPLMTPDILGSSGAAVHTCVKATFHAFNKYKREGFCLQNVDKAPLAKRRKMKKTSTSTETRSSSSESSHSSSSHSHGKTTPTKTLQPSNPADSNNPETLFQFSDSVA
T9 sequence (P54762 18-984): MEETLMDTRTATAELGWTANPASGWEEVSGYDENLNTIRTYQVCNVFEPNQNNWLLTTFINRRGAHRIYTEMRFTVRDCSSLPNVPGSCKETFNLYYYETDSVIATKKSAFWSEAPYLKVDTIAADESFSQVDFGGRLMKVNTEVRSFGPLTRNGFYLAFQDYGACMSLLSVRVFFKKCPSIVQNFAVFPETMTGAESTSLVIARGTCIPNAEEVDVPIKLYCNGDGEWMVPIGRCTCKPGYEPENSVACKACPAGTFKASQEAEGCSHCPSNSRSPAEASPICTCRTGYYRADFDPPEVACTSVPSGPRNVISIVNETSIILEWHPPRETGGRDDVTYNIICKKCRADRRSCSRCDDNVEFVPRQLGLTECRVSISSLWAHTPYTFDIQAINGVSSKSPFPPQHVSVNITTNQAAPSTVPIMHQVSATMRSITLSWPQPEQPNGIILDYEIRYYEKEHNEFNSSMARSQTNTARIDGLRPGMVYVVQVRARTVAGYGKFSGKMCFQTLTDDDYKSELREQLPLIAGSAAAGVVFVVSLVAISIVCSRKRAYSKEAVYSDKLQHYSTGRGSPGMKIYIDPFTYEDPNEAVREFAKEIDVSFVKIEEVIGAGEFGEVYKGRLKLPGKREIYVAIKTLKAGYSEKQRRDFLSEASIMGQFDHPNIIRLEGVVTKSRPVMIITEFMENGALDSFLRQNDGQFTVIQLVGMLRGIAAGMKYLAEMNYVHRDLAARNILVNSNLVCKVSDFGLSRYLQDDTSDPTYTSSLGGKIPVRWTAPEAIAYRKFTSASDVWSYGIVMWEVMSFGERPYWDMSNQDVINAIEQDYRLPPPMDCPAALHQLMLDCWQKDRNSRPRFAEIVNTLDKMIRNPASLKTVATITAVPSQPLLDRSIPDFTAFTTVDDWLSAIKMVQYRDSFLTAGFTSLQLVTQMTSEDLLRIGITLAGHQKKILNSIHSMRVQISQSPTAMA
T8 sequence (Q9NWZ3 whole entry): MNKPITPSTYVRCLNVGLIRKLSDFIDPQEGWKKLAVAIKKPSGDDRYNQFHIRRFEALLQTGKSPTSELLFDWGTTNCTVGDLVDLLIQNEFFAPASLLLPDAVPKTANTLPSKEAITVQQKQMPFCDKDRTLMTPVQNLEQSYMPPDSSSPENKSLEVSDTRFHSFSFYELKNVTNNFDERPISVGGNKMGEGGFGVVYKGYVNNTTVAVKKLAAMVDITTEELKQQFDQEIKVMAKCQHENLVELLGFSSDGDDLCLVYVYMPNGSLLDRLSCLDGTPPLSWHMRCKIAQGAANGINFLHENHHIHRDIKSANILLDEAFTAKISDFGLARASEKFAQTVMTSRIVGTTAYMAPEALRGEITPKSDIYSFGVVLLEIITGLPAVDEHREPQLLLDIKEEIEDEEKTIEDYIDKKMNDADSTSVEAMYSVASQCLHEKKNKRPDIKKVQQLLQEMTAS
T1 sequence (O75460 19-977): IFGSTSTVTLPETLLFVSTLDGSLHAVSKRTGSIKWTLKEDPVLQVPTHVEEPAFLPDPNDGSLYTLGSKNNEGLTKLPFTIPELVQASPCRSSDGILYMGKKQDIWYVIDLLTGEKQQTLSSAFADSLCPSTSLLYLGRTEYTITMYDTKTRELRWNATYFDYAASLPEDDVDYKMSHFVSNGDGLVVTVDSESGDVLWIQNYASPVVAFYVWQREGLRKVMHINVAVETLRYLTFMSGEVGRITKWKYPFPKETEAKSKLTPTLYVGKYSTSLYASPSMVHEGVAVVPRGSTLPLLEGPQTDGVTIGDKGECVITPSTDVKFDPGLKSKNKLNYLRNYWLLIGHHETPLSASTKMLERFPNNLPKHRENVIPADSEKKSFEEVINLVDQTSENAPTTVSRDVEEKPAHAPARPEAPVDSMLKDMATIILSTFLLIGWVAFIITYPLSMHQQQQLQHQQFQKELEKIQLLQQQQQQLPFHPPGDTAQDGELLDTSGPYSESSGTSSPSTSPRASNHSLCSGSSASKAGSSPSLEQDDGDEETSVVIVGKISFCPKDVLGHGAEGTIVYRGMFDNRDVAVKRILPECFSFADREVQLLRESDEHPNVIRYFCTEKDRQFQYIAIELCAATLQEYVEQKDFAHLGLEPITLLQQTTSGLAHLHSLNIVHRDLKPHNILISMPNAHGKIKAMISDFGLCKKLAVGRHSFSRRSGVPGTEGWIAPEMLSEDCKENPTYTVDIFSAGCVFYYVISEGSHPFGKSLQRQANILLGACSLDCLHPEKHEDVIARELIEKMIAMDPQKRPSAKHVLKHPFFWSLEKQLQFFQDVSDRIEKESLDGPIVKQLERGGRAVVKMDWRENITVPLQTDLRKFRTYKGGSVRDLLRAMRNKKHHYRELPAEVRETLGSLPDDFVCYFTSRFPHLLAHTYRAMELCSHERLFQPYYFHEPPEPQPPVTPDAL
T27 sequence (Q09013 whole entry): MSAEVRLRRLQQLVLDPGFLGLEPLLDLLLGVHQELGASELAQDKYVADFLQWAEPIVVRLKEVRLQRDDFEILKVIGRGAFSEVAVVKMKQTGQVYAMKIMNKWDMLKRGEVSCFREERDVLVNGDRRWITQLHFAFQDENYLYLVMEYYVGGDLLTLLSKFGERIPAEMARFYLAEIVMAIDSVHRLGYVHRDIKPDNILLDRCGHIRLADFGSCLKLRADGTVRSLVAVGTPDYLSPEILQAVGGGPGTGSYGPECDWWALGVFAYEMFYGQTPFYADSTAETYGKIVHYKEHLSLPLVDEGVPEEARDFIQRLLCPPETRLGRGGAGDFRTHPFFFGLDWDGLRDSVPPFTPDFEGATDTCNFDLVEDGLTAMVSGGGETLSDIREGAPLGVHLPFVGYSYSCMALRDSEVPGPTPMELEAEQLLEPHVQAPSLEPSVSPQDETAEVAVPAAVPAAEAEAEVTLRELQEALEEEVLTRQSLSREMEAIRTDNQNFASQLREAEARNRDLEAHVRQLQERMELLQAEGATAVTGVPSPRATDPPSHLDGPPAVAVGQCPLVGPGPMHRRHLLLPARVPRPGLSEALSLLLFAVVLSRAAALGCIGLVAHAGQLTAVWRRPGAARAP

Compound `CN(C)C(=O)c1cc2cnc(Nc3ccc(-c4csc5c(=O)cc(N6CCOCC6)oc45)cc3)nc2n1C1CCCC1` [SRX3177] has a remaining binding at 1 µM (kinome (kinase panel) [1]) of 85%, a remaining binding at 1 µM (kinome (kinase panel) [2]) of 87% and a remaining binding at 1 µM (kinome (kinase panel) [3]) of 100%. For the same compound, the remaining binding at 1 µM (kinome (kinase panel) [4]) was 12%, the remaining binding at 1 µM (kinome (kinase panel) [5]) was 73% and the remaining binding at 1 µM (kinome (kinase panel) [6]) was 79%. For the same compound, the remaining binding at 1 µM (kinome (kinase panel) [7]) was 2.1%, the remaining binding at 1 µM (kinome (kinase panel) [8]) was 45% and the remaining binding at 1 µM (kinome (kinase panel) [9]) was 100%. For the same compound, the remaining binding at 1 µM (kinome (kinase panel) [10]) was 58%, the remaining binding at 1 µM (kinome (kinase panel) [11]) was 99% and the remaining binding at 1 µM (kinome (kinase panel) [12]) was 71%. It also gave a remaining binding at 1 µM (kinome (kinase panel) [13]) of 60%, a remaining binding at 1 µM (kinome (kinase panel) [14]) of 100% and a remaining binding at 1 µM (kinome (kinase panel) [15]) of 72%. For the same compound, the remaining binding at 1 µM (kinome (kinase panel) [16]) was 67%, the remaining binding at 1 µM (kinome (kinase panel) [17]) was 82% and the remaining binding at 1 µM (kinome (kinase panel) [18]) was 88%. It also gave a remaining binding at 1 µM (kinome (kinase panel) [19]) of 100%, a remaining binding at 1 µM (kinome (kinase panel) [20]) of 87% and a remaining binding at 1 µM (kinome (kinase panel) [21]) of 94%. For the same compound, the remaining binding at 1 µM (kinome (kinase panel) [22]) was 84%, the remaining binding at 1 µM (kinome (kinase panel) [23]) was 93% and the remaining binding at 1 µM (kinome (kinase panel) [24]; RPS6KA5(Kin.Dom.1-N-terminal)) was 100%. For the same compound, the remaining binding at 1 µM (kinome (kinase panel) [24]; RPS6KA5(Kin.Dom.2-C-terminal)) was 100%, the remaining binding at 1 µM (kinome (kinase panel) [25]; JAK1(JH1domain-catalytic)) was 96% and the remaining binding at 1 µM (kinome (kinase panel) [25]; JAK1(JH2domain-pseudokinase)) was 9.5%. It also gave a remaining binding at 1 µM (kinome (kinase panel) [26]) of 89%, a remaining binding at 1 µM (kinome (kinase panel) [27]) of 100% and a remaining binding at 1 µM (kinome (kinase panel) [28]) of 4.8%. It also gave a remaining binding at 1 µM (kinome (kinase panel) [29]) of 97%, a remaining binding at 1 µM (kinome (kinase panel) [30]) of 98% and a remaining binding at 1 µM (kinome (kinase panel) [31]) of 0%. For the same compound, the remaining binding at 1 µM (kinome (kinase panel) [32]) was 94%.
